Measured values published in ChEMBL document CHEMBL1144867, “Antiviral amphipathic oligo- and polyribonucleotides: analogue development and biological studies” (J Med Chem, 2003).
pEC50: −log10 of the molar value.

Tested on: MRC5
Experiment: Inhibitory activity of compound against human cytomegalovirus (HCMV) in MRC-5 cells.
Assay type: functional, cell-based

## Nc1nc2c(ncn2COC(CO)CO)c(=O)[nH]1 [GANCICLOVIR]
  pEC50: 5.03
